Measured values taken from ChEMBL document CHEMBL5528046, “Discovery of Novel PROTAC Degraders of p300/CBP as Potential Therapeutics for Hepatocellular Carcinoma” (J Med Chem, 2024).

Columns and labels:
SK-HEP1 [1] = test: Induction of cell cycle arrest at G2/M phase in human SK-HEP1 cells assessed as SKP2 protein level at 0.5 uM incubated for 24 hrs by immunoblotting analysis (reference value: 100%); assay type: functional
[2] = biological target: T1, Protein cereblon/Histone acetyltransferase p300 (Homo sapiens, UniProt Q09472+Q96SW2); test: PROTAC activity at CRBN/p300 in human SK-HEP1 cells assessed as induction of p300 protein degradation by measuring residual activity at 1 uM incubated for 6 hrs by immunoblotting analysis (reference value: 100%); assay type: cell-based
[3] = biological target: T1, Protein cereblon/Histone acetyltransferase p300; test: PROTAC activity at CRBN/p300 in human SK-HEP1 cells assessed as induction of p300 protein degradation by measuring residual activity at 1 uM incubated for 0.5 hrs by immunoblotting analysis (reference value: 100%); assay type: cell-based
SK-HEP1 [4] = test: Inhibition of colony formation in human SK-HEP1 cells incubated for 14 days with compound containing media replacement for every 3 days by crystal violet staining based assay; assay type: functional, cell-based; details: dose 0.5-2 µM, time 14.0 day
[5] = biological target: T1, Protein cereblon/Histone acetyltransferase p300; test: PROTAC activity at CRBN/p300 in human SK-HEP1 cells assessed as induction of p300 protein degradation at 0.01 uM incubated for 24 hrs relative to control; assay type: cell-based
[6] = biological target: Protein cereblon/CREB-binding protein (Homo sapiens) (UniProt Q92793+Q96SW2); test: PROTAC activity at CRBN/CBP in human SK-HEP1 cells assessed as induction of […] protein degradation by measuring residual activity incubated for 24 hrs by immunoblotting analysis; assay type: cell-based; details: dose 0.5-2 µM
[7] = biological target: T1, Protein cereblon/Histone acetyltransferase p300; test: PROTAC activity at CRBN/p300 in human SK-HEP1 cells assessed as increase in protein ubiquitination at 2 uM pretreated with MG132 at 1 uM followed by compound treatment and further incubated for 24 hrs by immunoblotting analysis (reference value: 100%); assay type: cell-based
SK-HEP1 [8] = test: Induction of apoptosis in human SK-HEP1 cells incubated for 72 hrs by Annexin V-FITC/PI staining based flow cytometry analysis; assay type: functional, cell-based; details: dose 0.5-2 µM
[9] = biological target: T1, Protein cereblon/Histone acetyltransferase p300; test: PROTAC activity at CRBN/p300 in human SK-HEP1 cells assessed as induction of p300 protein degradation by measuring residual activity at 10 nM incubated for 24 hrs by immunoblotting analysis (reference value: 100%); assay type: cell-based
SK-HEP1 [10] = test: Induction of cell cycle arrest at G2/M phase in human SK-HEP1 cells incubated for 48 hrs by RNase/PI staining based flow cytometry analysis; assay type: functional; details: dose 0.5-2 µM
[11] = biological target: T1, Protein cereblon/Histone acetyltransferase p300; test: PROTAC activity at CRBN/p300 in human SK-HEP1 cells assessed as induction of p300 protein degradation by measuring residual activity at 100 nM incubated for 24 hrs by immunoblotting analysis (reference value: 100%); assay type: cell-based
[12] = biological target: T1, Protein cereblon/Histone acetyltransferase p300; test: PROTAC activity at CRBN/p300 in human SK-HEP1 cells assessed as induction of p300 protein degradation by measuring residual activity at 1 uM incubated for 1 hrs by immunoblotting analysis (reference value: 100%); assay type: cell-based

T1 sequence (Q09472 2-2414 limits assumed): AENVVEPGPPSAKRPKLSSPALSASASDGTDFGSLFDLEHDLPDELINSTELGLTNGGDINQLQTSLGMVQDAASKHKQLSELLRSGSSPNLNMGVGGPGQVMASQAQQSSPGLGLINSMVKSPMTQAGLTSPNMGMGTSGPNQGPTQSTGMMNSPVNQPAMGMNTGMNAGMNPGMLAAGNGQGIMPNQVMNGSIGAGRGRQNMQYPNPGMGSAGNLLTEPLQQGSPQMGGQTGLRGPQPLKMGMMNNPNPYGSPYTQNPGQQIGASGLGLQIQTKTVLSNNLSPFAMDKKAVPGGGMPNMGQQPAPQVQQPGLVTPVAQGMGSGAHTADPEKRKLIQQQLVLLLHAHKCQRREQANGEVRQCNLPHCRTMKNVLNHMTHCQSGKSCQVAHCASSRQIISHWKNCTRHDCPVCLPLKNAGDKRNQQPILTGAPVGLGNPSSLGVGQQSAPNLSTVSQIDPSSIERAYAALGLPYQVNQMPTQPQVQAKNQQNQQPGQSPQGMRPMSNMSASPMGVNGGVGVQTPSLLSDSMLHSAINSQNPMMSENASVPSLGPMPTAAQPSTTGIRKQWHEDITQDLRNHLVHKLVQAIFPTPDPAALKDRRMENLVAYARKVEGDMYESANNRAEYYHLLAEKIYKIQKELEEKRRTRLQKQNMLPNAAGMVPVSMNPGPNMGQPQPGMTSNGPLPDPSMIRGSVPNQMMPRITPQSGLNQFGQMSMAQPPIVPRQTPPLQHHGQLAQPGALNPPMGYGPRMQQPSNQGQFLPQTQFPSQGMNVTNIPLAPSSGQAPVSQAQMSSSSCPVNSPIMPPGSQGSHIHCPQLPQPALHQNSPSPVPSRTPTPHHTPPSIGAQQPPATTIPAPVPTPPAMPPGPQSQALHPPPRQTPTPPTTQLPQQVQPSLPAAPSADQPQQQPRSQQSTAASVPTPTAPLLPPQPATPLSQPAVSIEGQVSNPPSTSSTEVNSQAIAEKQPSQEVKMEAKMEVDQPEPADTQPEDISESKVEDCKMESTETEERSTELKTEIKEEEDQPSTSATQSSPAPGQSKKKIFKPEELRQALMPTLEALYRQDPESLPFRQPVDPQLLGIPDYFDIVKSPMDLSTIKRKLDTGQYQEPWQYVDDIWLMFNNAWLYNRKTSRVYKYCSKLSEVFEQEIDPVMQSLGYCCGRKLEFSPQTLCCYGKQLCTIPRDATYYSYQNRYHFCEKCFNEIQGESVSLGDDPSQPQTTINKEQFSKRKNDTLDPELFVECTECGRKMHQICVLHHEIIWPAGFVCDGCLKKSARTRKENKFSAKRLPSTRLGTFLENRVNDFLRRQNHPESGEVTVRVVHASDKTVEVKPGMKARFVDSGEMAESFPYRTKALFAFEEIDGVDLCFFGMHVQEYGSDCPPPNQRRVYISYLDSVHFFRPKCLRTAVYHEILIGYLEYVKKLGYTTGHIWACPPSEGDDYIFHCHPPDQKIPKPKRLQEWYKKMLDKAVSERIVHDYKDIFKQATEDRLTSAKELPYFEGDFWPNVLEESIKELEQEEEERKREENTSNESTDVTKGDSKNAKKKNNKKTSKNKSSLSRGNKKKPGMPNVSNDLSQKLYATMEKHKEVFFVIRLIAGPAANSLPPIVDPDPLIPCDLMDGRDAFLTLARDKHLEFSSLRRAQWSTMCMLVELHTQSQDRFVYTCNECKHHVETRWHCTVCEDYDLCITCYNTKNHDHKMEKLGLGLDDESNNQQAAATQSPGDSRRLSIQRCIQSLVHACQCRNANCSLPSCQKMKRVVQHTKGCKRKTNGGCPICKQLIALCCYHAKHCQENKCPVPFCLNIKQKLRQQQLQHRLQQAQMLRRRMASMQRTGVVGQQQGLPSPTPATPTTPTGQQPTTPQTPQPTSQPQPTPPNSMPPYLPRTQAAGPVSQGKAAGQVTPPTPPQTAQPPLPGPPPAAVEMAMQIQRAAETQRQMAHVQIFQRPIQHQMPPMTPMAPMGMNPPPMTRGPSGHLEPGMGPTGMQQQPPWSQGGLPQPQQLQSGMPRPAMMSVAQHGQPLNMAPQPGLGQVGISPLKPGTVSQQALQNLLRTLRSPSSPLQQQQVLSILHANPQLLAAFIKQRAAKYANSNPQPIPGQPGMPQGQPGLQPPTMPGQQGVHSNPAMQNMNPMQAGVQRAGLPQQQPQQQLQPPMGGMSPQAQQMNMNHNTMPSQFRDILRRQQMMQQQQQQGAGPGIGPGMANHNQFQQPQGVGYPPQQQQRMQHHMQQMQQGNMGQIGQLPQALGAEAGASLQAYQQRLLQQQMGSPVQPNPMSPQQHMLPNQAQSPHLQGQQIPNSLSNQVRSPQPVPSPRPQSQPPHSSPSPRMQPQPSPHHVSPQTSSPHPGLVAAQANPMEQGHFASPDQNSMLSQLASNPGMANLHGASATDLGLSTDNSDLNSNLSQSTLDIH
T1 sequence (Q96SW2 whole entry partner): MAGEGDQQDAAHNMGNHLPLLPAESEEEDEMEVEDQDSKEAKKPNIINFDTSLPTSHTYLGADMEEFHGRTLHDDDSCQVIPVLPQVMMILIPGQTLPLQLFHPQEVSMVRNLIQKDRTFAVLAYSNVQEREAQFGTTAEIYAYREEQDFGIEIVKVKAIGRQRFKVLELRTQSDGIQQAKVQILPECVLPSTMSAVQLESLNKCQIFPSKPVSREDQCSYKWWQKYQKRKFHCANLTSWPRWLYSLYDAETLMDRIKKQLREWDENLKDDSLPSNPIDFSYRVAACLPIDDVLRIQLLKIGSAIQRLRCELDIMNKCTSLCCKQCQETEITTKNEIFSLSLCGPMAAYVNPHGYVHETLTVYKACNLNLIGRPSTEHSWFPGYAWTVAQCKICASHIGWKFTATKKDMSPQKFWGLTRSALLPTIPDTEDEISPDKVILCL

What does the source list for `Cc1noc(C)c1-c1ccc2c(c1)nc([C@@H]1CCCC(=O)N1c1ccc(F)c(F)c1)n2C1CCN(C2CN(c3ccc4c(c3)C(=O)N(C3CCC(=O)NC3=O)C4=O)C2)CC1` (some centres not stated)?
Activity (SK-HEP1 [1]): 117%; Activity [2]: 59%; Activity [3]: 100%; inhibition (SK-HEP1 [4]): Dose-Dependent Effect; Activity [5]: 9%; Activity [6]: Dose-Dependent Effect; Activity [7]: 114%; Activity (SK-HEP1 [8]): Dose-Dependent Effect; Activity [9]: 70%; Activity (SK-HEP1 [10]): Dose-Dependent Effect; Activity [11]: 61%; Activity [12]: 78%
